Results taken from ChEMBL document CHEMBL4265943, “Design and synthesis of potent dual inhibitors of JAK2 and HDAC based on fusing the pharmacophores of XL019 and vorinostat” (Eur J Med Chem, 2018).

Tests used:
[1] = target: Tyrosine-protein kinase JAK2 (Homo sapiens, UniProt O60674); assay: Inhibition of human JAK2 using poly(Glu:Tyr)(4:1) as substrate preincubated for 20 mins followed by [gamma33P]ATP addition measured after 120 mins by ion exchange filter paper method
[2] = target: Histone deacetylase 1 (Homo sapiens, UniProt Q13547); assay: Inhibition of HDAC1 (unknown origin) using Arg-His-Lys-Lys(Ac) as substrate preincubated with enzyme followed by substrate addition for 2 hrs and measured for 1.5 hrs at 15 mins time interval by fluorescence assay
[3] = target: T1, Protein deacetylase HDAC6 (Homo sapiens, UniProt Q9UBN7); assay: Inhibition of HDAC6 (unknown origin) using Arg-His-Lys-Lys(Ac) as substrate preincubated with enzyme followed by substrate addition for 2 hrs and measured for 1.5 hrs at 15 mins time interval by fluorescence assay
T1 sequence (Q9UBN7 whole entry): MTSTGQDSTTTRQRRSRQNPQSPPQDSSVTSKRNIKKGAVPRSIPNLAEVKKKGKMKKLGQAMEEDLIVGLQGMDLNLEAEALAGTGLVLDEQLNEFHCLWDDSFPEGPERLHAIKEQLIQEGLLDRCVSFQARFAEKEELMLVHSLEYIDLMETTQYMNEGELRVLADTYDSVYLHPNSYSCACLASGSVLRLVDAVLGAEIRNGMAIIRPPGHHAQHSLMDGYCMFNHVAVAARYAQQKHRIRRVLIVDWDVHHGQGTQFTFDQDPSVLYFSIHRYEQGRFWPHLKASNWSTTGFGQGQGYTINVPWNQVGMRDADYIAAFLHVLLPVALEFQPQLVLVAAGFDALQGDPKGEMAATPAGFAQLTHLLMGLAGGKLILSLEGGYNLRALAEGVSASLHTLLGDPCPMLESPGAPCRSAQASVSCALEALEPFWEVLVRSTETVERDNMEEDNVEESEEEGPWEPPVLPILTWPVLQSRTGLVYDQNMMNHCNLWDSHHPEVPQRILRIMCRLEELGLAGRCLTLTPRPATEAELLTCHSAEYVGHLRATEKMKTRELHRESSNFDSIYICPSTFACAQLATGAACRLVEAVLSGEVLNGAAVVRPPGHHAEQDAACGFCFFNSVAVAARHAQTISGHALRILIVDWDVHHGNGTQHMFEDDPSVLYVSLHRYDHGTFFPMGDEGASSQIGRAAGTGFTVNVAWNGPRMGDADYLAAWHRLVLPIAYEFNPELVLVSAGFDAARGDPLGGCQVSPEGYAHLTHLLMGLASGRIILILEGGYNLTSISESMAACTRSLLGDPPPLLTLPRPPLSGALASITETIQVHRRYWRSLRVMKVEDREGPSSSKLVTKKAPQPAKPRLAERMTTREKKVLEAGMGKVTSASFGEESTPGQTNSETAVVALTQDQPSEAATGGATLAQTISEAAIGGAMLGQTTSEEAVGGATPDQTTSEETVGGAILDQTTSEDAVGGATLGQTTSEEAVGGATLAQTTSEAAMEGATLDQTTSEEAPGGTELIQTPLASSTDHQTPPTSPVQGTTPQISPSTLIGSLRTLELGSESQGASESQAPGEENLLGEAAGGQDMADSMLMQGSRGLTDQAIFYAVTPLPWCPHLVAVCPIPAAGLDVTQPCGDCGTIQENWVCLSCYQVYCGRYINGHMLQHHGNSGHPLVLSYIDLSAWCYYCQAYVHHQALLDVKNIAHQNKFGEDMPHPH

[4] = test system: HCT-116; assay: Antiproliferative activity against human HCT116 cells after 72 hrs by MTT assay; format: functional, cell-based; details: HCT-116, 72 h
[5] = test system: MDA-MB-231; assay: Antiproliferative activity against human MDA-MB-231 cells after 72 hrs by MTT assay; format: functional, cell-based; details: MDA-MB-231, 72 h
[6] = test system: MCF7; assay: Antiproliferative activity against human MCF7 cells after 72 hrs by MTT assay; format: functional, cell-based; details: MCF7, 72 h
[7] = test system: PC-3; assay: Antiproliferative activity against human PC3 cells after 72 hrs by MTT assay; format: functional, cell-based; details: PC-3, 72 h
[8] = Antiproliferative activity against human AC10 cells after 72 hrs by MTT assay; format: cell-based
[9] = Antiproliferative activity against mouse TAMH cells after 72 hrs by MTT assay; format: cell-based
[10] = Selectivity index, ratio of CC50 for human AC10 cells to IC50 for human MDA-MB-231 cells; format: toxicity; details: AC10 cells (CC50) and MDA-MB-231 cells (IC50)
[11] = Selectivity index, ratio of CC50 for mouse TAMH cells to IC50 for human MDA-MB-231 cells; format: toxicity; details: TAMH cells (CC50) and MDA-MB-231 cells (IC50)
[12] = Selectivity index, ratio of CC50 for human AC10 cells to IC50 for human MCF7 cells; format: toxicity; details: AC10 cells (CC50) and MCF7 cells (IC50)
[13] = Selectivity index, ratio of CC50 for mouse TAMH cells to IC50 for human MCF7 cells; format: toxicity; details: TAMH cells (CC50) and MCF7 cells (IC50)
[14] = Selectivity index, ratio of CC50 for human AC10 cells to IC50 for human PC3 cells; format: toxicity; details: AC10 cells (CC50) and PC3 cells (IC50)
[15] = Selectivity index, ratio of CC50 for mouse TAMH cells to IC50 for human PC3 cells; format: toxicity; details: TAMH cells (CC50) and PC3 cells (IC50)
[16] = test system: PC-3; assay: Induction of apoptosis in human PC3 cells assessed as live cells at 1.07 uM after 72 hrs by Annexin V-FITC/propidium iodide staining based flow cytometry (reference value: 96.36%); format: functional
[17] = test system: PC-3; assay: Induction of apoptosis in human PC3 cells assessed as early apoptotic cells at 1.07 uM after 72 hrs by Annexin V-FITC/propidium iodide staining based flow cytometry (reference value: […]%); format: functional
[18] = test system: PC-3; assay: Induction of apoptosis in human PC3 cells assessed as late apoptotic cells at 1.07 uM after 72 hrs by Annexin V-FITC/propidium iodide staining based flow cytometry (reference value: 1.01%); format: functional
[19] = test system: PC-3; assay: Induction of apoptosis in human PC3 cells assessed as necrotic cells at 1.07 uM after 72 hrs by Annexin V-FITC/propidium iodide staining based flow cytometry (reference value: 0.66%); format: functional
[20] = test system: HCT-116; assay: Induction of apoptosis in human HCT116 cells assessed as live cells at 0.99 uM after 72 hrs by Annexin V-FITC/propidium iodide staining based flow cytometry (reference value: 95.7%); format: functional
[21] = test system: HCT-116; assay: Induction of apoptosis in human HCT116 cells assessed as early apoptotic cells at 0.99 uM after 72 hrs by Annexin V-FITC/propidium iodide staining based flow cytometry (reference value: 1.31%); format: functional
[22] = test system: HCT-116; assay: Induction of apoptosis in human HCT116 cells assessed as late apoptotic cells at 0.99 uM after 72 hrs by Annexin V-FITC/propidium iodide staining based flow cytometry (reference value: 1.45%); format: functional
[23] = test system: HCT-116; assay: Induction of apoptosis in human HCT116 cells assessed as necrotic cells at 0.99 uM after 72 hrs by Annexin V-FITC/propidium iodide staining based flow cytometry (reference value: 1.54%); format: functional
[24] = test system: MCF7; assay: Induction of apoptosis in human MCF7 cells assessed as live cells at 1.64 uM after 72 hrs by Annexin V-FITC/propidium iodide staining based flow cytometry (reference value: 95.05%); format: functional
[25] = test system: MCF7; assay: Induction of apoptosis in human MCF7 cells assessed as early apoptotic cells at 1.64 uM after 72 hrs by Annexin V-FITC/propidium iodide staining based flow cytometry (reference value: 1.19%); format: functional
[26] = test system: MCF7; assay: Induction of apoptosis in human MCF7 cells assessed as late apoptotic cells at 1.64 uM after 72 hrs by Annexin V-FITC/propidium iodide staining based flow cytometry (reference value: 1.59%); format: functional
[27] = test system: MCF7; assay: Induction of apoptosis in human MCF7 cells assessed as necrotic cells at 1.64 uM after 72 hrs by Annexin V-FITC/propidium iodide staining based flow cytometry (reference value: 2.17%); format: functional
[28] = test system: MDA-MB-231; assay: Induction of apoptosis in human MDA-MB-231 cells assessed as live cells at 0.85 uM after 72 hrs by Annexin V-FITC/propidium iodide staining based flow cytometry (reference value: 90.98%); format: functional
[29] = test system: MDA-MB-231; assay: Induction of apoptosis in human MDA-MB-231 cells assessed as early apoptotic cells at 0.85 uM after 72 hrs by Annexin V-FITC/propidium iodide staining based flow cytometry (reference value: 1.45%); format: functional
[30] = test system: MDA-MB-231; assay: Induction of apoptosis in human MDA-MB-231 cells assessed as late apoptotic cells at 0.85 uM after 72 hrs by Annexin V-FITC/propidium iodide staining based flow cytometry (reference value: 2.12%); format: functional
[31] = test system: MDA-MB-231; assay: Induction of apoptosis in human MDA-MB-231 cells assessed as necrotic cells at 0.85 uM after 72 hrs by Annexin V-FITC/propidium iodide staining based flow cytometry (reference value: 5.45%); format: functional

Chain of Histone deacetylase 1 (Q13547 whole entry): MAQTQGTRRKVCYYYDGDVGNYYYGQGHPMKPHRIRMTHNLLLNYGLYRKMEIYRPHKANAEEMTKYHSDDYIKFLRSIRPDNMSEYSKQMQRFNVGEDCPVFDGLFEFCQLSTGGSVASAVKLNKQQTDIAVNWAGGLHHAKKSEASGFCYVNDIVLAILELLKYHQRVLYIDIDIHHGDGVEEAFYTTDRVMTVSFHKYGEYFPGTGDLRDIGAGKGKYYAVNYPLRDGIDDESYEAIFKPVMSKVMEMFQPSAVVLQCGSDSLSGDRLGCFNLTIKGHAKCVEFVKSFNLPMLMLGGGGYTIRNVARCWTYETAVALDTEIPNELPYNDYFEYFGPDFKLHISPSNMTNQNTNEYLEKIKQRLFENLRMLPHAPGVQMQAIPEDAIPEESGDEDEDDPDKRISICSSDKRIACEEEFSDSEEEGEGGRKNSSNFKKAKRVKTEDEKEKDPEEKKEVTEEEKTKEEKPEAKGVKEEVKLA
Chain of Tyrosine-protein kinase JAK2 (O60674 whole entry): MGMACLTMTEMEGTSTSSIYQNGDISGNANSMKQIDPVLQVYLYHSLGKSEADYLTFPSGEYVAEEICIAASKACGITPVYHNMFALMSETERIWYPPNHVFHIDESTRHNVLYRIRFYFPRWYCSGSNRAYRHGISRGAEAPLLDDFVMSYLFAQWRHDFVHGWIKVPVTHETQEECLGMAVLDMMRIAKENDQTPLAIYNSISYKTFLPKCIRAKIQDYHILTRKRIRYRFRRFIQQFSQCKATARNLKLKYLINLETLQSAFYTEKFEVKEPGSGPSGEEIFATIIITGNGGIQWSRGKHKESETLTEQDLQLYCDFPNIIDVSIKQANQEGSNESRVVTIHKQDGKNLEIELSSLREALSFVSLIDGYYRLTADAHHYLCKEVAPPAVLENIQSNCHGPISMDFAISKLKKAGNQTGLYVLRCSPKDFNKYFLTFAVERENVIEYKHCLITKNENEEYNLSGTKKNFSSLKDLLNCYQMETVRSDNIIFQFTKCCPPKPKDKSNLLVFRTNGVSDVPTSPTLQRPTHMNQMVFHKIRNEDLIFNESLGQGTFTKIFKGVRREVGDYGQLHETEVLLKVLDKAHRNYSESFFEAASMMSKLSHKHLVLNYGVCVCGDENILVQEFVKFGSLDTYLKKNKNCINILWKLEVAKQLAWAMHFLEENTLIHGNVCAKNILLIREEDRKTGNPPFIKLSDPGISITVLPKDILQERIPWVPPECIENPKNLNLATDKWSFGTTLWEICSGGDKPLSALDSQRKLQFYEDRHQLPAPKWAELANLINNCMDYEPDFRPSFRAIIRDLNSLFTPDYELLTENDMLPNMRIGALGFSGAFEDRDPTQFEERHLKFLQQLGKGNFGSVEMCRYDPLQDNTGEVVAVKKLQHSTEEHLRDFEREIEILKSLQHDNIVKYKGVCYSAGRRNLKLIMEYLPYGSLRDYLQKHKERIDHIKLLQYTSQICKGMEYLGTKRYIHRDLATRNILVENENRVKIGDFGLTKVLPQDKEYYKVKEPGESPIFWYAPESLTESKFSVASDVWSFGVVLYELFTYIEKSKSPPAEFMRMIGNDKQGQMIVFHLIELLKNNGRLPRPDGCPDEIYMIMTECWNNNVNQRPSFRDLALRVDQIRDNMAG

Compound: CN1CCN(c2ccc(Nc3nccc(-c4ccc(NC(=O)CCCCCCC(=O)NO)cc4)n3)cc2)CC1
- IC50 [1]: 4.6 nM
- IC50 [2]: 77 nM
- IC50 [3]: 3.1 nM
- IC50 [4]: 990 nM
- IC50 [5]: 910 nM
- IC50 [6]: 1610 nM
- IC50 [7]: 1020 nM
- CC50 at 72 h [8]: 3310 nM
- CC50 at 72 h [9]: 5440 nM
- selectivity ratio [10]: 3.64
- selectivity ratio [11]: 5.98
- selectivity ratio [12]: 2.06
- selectivity ratio [13]: 3.38
- selectivity ratio [14]: 3.25
- selectivity ratio [15]: 5.33
- Activity [16]: 5.35%
- Activity [17]: 73.28%
- Activity [18]: 19.83%
- Activity [19]: 1.54%
- Activity [20]: 83.01%
- Activity [21]: 5.87%
- Activity [22]: 6.43%
- Activity [23]: 4.69%
- Activity [24]: 88.21%
- Activity [25]: 6.54%
- Activity [26]: 3.37%
- Activity [27]: 1.88%
- Activity [28]: 13.2%
- Activity [29]: 39.4%
- Activity [30]: 40.56%
- Activity [31]: 6.84%
